The values that follow come from US10106515B2, “1-(cyclopent-2-en-1-yl)-3-(2-hydroxy-3-(arylsulfonyl)phenyl)urea derivatives as CXCR2 inhibitors” (GLAXOSMITHKLINE INTELLECTUAL PROPERTY DEVELOPMENT LIMITED, priority 2014, dated 2018).

Where a name gives a salt, the structure may show the parent alone. A value given as a limit tells only on which side of the number the result lay.

This assay deals with T1, recombinant human CXCR2 (Homo sapiens, UniProt P25025).
T1 construct: TEV protease site; Gal4-VP16 transcription factor
T1 sequence (P25025 1-360): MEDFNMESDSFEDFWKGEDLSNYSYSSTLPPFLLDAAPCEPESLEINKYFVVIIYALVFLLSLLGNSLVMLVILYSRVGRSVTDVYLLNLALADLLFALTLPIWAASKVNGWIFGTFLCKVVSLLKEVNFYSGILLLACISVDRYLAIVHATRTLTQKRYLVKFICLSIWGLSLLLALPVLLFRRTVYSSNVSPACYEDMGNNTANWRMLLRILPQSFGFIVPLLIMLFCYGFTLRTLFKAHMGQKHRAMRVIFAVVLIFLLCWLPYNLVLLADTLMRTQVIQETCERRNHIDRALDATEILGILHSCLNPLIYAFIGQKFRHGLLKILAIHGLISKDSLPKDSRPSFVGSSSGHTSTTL
The assay can be described thus: CXCR2 Tango assay. It counts as cell-based. Conditions: mean pIC50 of multiple test results; stimulated with 80 nM hCXCL1; reporter gene blue/green emission ratio; read-out: pIC50 (CXCR2 Tango assay) (converted). From the text: The assay measures ligand-induced activation of the receptor CXCR2 in a stable cell line containing the recombinant human CXCR2 linked to a TEV protease site and a Gal4-VP16 transcription factor (Invitrogen). Ligand binding to the receptor results in the recruitment of arrestin proteins (tagged with protease) to the receptor and triggers the release of a tethered transcription factor. The transcription factor enters the nucleus and activates the transcription of the reporter gene. The ability of a compound to inhibit CXCR2 activation is indirectly assessed by measuring the reporter gene activity.
A vial of cryopreserved cells was removed from liquid nitrogen and rapidly thawed in a water bath at 37° C. with gentle agitation. The contents of the vial were transferred drop-wise into Thawing Medium in a sterile 15 ml conical tube and then centrifuged at 1000 rpm for 4-5 min. Then the cell pellets were resuspended in Assay Medium at a density of ˜200,000 cells/ml. All test compounds were dissolved in DMSO at a concentration of 10 mM and were prepared in 100% DMSO to provide 10 point dose response curves. A reference CXCR2 antagonist was added to wells in row 2, columns 1-5 & 7-11. Exemplified compounds 1-4, 7, 8-10, 13-22, 24-26, 28-30, 32, 33, 36, 37, 40, 42-44. 95-110, 115-118, 120, 121, 125, 126, 129-134, 137, 138, 140, 142, 147-149, 153-157, 159-162, 163-166, 168, 170, 172, 174-180 and 202 were tested using the CXCR2 antagonist sodium 3-chloro-6-(3-(2,3-dichlorophenyl)ureido)-2-sulfamoylphenolate as reference compound (Reference Compound 1) (published International patent application WO2002/079122). […] Test compounds were added to wells in row 2, columns 13-17 & 19-23 and rows 3-15, columns 1-5 & 7-11/13-17 & 19-23 (columns 6 and 18 as positive controls and un-stimulated controls respectively; columns 12 and 24 as cell-free control). Compounds in solution were added to the assay plate (Greiner 781090) using an Echo (Labcyte) concentration-response program (50 nl/well). The cell-free, un-stimulated and positive controls were loaded with 50 nl/well pure DMSO to ensure that the DMSO concentration was constant across the plate for all assays. Using Multi-drop Combi (Thermo) with standard cassette, 50 μl of Assay Medium was added to each well in the cell-free controls (columns 12 and 24); 50 μl of the cell suspension without hCXCL1 (a CXCR2 ligand) was added to each well in column 18 of the plate (˜10,000 cells per well); and 50 μl of the cell suspension with 80 nM hCXCL1 was added to the rest of wells of the plate (˜10,000 cells per well). The cells were incubated overnight at 37° C./5% CO2. 10 μl of 6× substrate mixture (LiveBLAzer™-FRET B/G substrate (CCF4-AM) Cat # K1096 from Invitrogen, Inc.) was added to each well using Multi-drop Combi (Thermo) with small-tube cassette and the plates incubated at room temperature for 2 h in the dark. The plate was finally read on EnVision using one excitation channel (409 nm) and two emission channels (460 nm and 530 nm).
The blue/green emission ratio (460 nm/530 nm) was calculated for each well, by dividing the background-subtracted Blue emission values by the background-subtracted Green emission values. The dose response curve was based on sigmoidal dose-response model. All ratio data was normalized based upon the maximum emission ratio of positive control (hCXCL1) and minimum emission ratio of negative control (DMSO) on each plate. The intrinsic activity (IA) of each compound would be the normalized percentage of its maximum response after curve fitting.
All exemplified compounds (except for Compounds 203 and 204) were tested in the CXCR2 Tango assay or a similar assay described above. The data mentioned below represents a mean pIC 50 value of multiple test results. It is understood that the data illustrated below may have reasonable variation depending on the specific conditions and procedures used by the person conducting the testing.
In general terms: In a reporter assay the amount or activity of a reporter protein is the signal.
With `CC1=CCC[C@H]1NC(=O)Nc1ccc(Cl)c(S(=O)(=O)C(C)CO)c1O` (stereo partly drawn) [Compound 34, 1-(4-chloro-2-hydroxy-3-((1-hydroxypropan-2-yl)sulfonyl)phenyl)-3-((R)-2-methylcyclopent-2-en-1-yl)urea], the IC50 was not above 10 nM.

As for `CC1=CCCC1NC(=O)Nc1ccc(Cl)c(S(=O)(=O)N2CCn3ccnc3C2)c1O` (stereo not shown) [Compound 117, 1-(4-chloro-3-((5,6-dihydroimidazo [1,2-a]pyrazin-7(8H)-yl)sulfonyl)-2-hydroxyphenyl)-3-(2-methylcyclopent-2-en-1-yl)urea], the IC50 was not above 10 nM.

With `CC(C)(F)S(=O)(=O)c1c(Cl)ccc(NC(=O)NC2C=CCC2)c1O` (stereo not shown) [Compound 14, 1-(4-chloro-3-((2-fluoropropan-2-yl)sulfonyl)-2-hydroxyphenyl)-3-(cyclopent-2-en-1-yl)urea], the IC50 is not above 10 nM.

`CC(C)(C)S(=O)(=O)c1c(Cl)ccc(NC(=O)NC2CCC=C2Cl)c1O` (stereo not shown) [Compound 3, 1-(3-(tert-butylsulfonyl)-4-chloro-2-hydroxyphenyl)-3-(2-chlorocyclopent-2-en-1-yl)urea]: the IC50 is not above 10 nM.

On to `COC[C@H]1C[C@H](S(=O)(=O)c2c(Cl)ccc(NC(=O)NC3CCC=C3C)c2O)C1` (stereo partly drawn) [Compound 153, 1-(4-chloro-2-hydroxy-3-((trans-3-(methoxymethyl)cyclobutyl)sulfonyl)phenyl)-3-(2-methylcyclopent-2-en-1-yl)urea], for which the IC50 is not above 10 nM.

Turning to `[2H]C1(S(=O)(=O)c2c(Cl)ccc(NC(=O)N[C@@H]3CCC=C3C)c2O)CCN(C2CCC2)CC1` [Compound 81, (R)-1-(4-chloro-3-((1-cyclobutylpiperidin-4-yl)sulfonyl)-2-hydroxyphenyl)-3-(2-methylcyclopent-2-en-1-yl)urea-d1, trifluoroacetic acid salt], the IC50 is not above 1 nM.

With `C[C@]1(S(=O)(=O)c2c(Cl)ccc(NC(=O)N[C@@H]3CCC=C3Cl)c2O)CCOC1` (single isomer, unassigned) [Compound 197], the IC50 was not above 10 nM.

For the compound `CC1=CCC[C@H]1NC(=O)Nc1ccc(Cl)c(S(=O)(=O)C2CCC[C@@H]2O)c1O` (mixture of isomers) [Compound 51, (±)trans-1-(4-chloro-2-hydroxy-3-((2-hydroxycyclopent-yl)sulfonyl)phenyl)-3-((R)-2-methylcyclopent-2-en-1-yl)urea, trifluoroacetic acid salt], the IC50 was not above 1 nM.

`CC1=CCCC1NC(=O)Nc1ccc(Cl)c(S(=O)(=O)C(C)(C)F)c1O` (stereo not shown) [Compound 105, 1-(4-chloro-3-((2-fluoropropan-2-yl)sulfonyl)-2-hydroxyphenyl)-3-(2-methylcyclopent-2-en-1-yl)urea]: the IC50 was not above 10 nM.

On to `CC(C)(CCO)S(=O)(=O)c1c(Cl)ccc(NC(=O)N[C@@H]2CCC=C2Cl)c1O` [Compound 6, (R)-1-(4-chloro-2-hydroxy-3-((4-hydroxy-2-methylbutan-2-yl)sulfonyl)phenyl)-3-(2-chlorocyclopent-2-en-1-yl)urea], for which the IC50 was not above 1 nM.

For `CC1=CCCC1NC(=O)Nc1ccc(Cl)c(S(=O)(=O)C2CCc3nccn3C2)c1O` (stereo not shown) [Compound 108, 1-(4-chloro-2-hydroxy-3-((5,6,7,8-etrahydroimidazo [1,2-a]pyridin-6-yl)sulfonyl)phenyl)-3-(2-methylcyclopent-2-en-1-yl)urea, trifluoroacetic acid salt], the IC50 was not above 10 nM.

For `CC1(S(=O)(=O)c2c(Cl)ccc(NC(=O)N[C@@H]3CCC=C3Cl)c2O)COC1` [Compound 181, (R)-1-(4-chloro-2-hydroxy-3-((3-methyloxetan-3-yl)sulfonyl)phenyl)-3-(2-chlorocyclopent-2-en-1-yl)urea], the IC50 is more than 10000 nM.

`CC1=CCC[C@H]1NC(=O)Nc1ccc(Cl)c(S(=O)(=O)C2(C)CC3(COC3)C2)c1O` [Compound 65, (R)-1-(4-chloro-2-hydroxy-3-((6-methyl-2-oxaspiro[3.3]heptan-6-yl)sulfonyl)phenyl)-3-(2-methylcyclopent-2-en-1-yl)urea]: the IC50 was not above 10 nM.

On to `CC1=CCCC1NC(=O)Nc1ccc(Cl)c(S(=O)(=O)C(C)(C)C2CCOCC2)c1O` (stereo not shown) [Compound 103, 1-(4-chloro-2-hydroxy-3-((2-(tetrahydro-2H-pyran-4-yl)propan-2-yl)sulfonyl)phenyl)-3-(2-methylcyclopent-2-en-1-yl)urea], for which the IC50 is not above 10 nM.

For the compound `CC1=CCCC1NC(=O)Nc1ccc(Cl)c(S(=O)(=O)N2CCCC2)c1O` (stereo not shown) [Compound 116, 1-(4-chloro-2-hydroxy-3-(pyrrolidin-1-ylsulfonyl)phenyl)-3-(2-methylcyclopent-2-en-1-yl)urea], the IC50 is not above 10 nM.

Turning to `CC(C)(CO)S(=O)(=O)c1c(Cl)ccc(NC(=O)N[C@@H]2CCC=C2Cl)c1O` [Compound 12, (R)-1-(4-chloro-2-hydroxy-3-((1-hydroxy-2-methylpropan-2-yl)sulfonyl)phenyl)-3-(2-chlorocyclopent-2-en-1-yl)urea], the IC50 is not above 10 nM.

As for `O=C(Nc1ccc(Cl)c(S(=O)(=O)C2(F)CCOCC2)c1O)N[C@@H]1CCC=C1Cl` [Compound 168, (R)-1-(4-chloro-3-((4-fluorotetrahydro-2H-pyran-4-yl)sulfonyl)-2-hydroxyphenyl)-3-(2-chlorocyclopent-2-en-1-yl)urea], the IC50 is not above 1 nM.

Consider `O=C(Nc1ccc(Cl)c(S(=O)(=O)[C@H]2CCOC2)c1O)NC1C=CCC1` (stereo partly drawn) [Compound 175, 1-(4-chloro-2-hydroxy-3-(((S)-tetrahydrofuran-3-yl)sulfonyl)phenyl)-3-(cyclopent-2-en-1-yl)urea], for which the IC50 is not above 10 nM.

For the compound `CN(C)[C@H]1CC[C@@H](S(=O)(=O)c2c(Cl)ccc(NC(=O)NC3CCC=C3Cl)c2O)CC1` (stereo partly drawn) [Compound 130, 1-(4-chloro-3-((cis-4-(dimethylamino)cyclohexyl)sulfonyl)-2-hydroxyphenyl)-3-(2-chlorocyclopent-2-en-1-yl)urea, trifluoroacetic acid salt], the IC50 was not above 1 nM.

For the compound `CC1=CCC[C@H]1NC(=O)Nc1ccc(Cl)c(S(=O)(=O)[C@H]2C[C@H](C(F)F)C2)c1O` [Compound 48, 1-(4-chloro-3-((trans-3-(difluoromethyl)cyclobutyl)sulfonyl)-2-hydroxyphenyl)-3-((R)-2-methylcyclopent-2-en-1-yl)urea], the IC50 is not above 1 nM.

On to `CC1=CCC[C@H]1NC(=O)Nc1ccc(Cl)c(S(=O)(=O)[C@H]2CC[C@H](O)C2)c1O` (racemic) [Compound 45, (±)-trans-1-(4-chloro-2-hydroxy-3-((3-hydroxycyclopentyl)sulfonyl)phenyl)-3-((R)-2-methylcyclopent-2-en-1-yl)urea], for which the IC50 was not above 1 nM.

`CC1=CCC[C@H]1NC(=O)Nc1ccc(Cl)c(S(=O)(=O)N2CC[C@@H](F)C2)c1O` [Compound 87, 1-(4-chloro-3-(((R)-3-fluoropyrrolidin-1-yl)sulfonyl)-2-hydroxyphenyl)-3-((R)-2-methylcyclopent-2-en-1-yl)urea, trifluoroacetic acid salt]: the IC50 was not above 10 nM.
